Assay results: patent US11040056B2, “Benzimidazoles that enhance the activity of oligonucleotides” (The University of North Carolina at Chapel Hill, priority 2018, dated 2021)

Legend:
NIH-3T3-MDR cells = experiment: Alamar Blue cytotoxicity assay; assay type: cell-based; settings: 2 h exposure, then 24 h, FIG. 1E
Procedure: FIG. 1B-1E. Effects with SSOs. FIG. 1B Structure of UNC2383. FIG. 1C Compound 2383 enhances SSO effects. Cells were incubated in 24-well plates with 100 nM SSO623 or its mismatched control (MM) for 16 h in DMEM+10% FBS, rinsed and then treated with various concentrations of 2383 for 2 h. The cells were then rinsed and incubation continued for an additional 4 h in DMEM+10% FBS. Cells were rinsed twice in PBS and luciferase activity (RLU) and cell protein determined. The larger round symbol indicates the MM oligonucleotide. Means+/−SE. N=3. FIG. 1D Kinetics of 2383 action. Cells were preloaded with 100 nM SSO623 and then exposed to 2383 for various periods after which the compound was removed. The cells were further incubated and then luciferase and protein determined. The total time of incubation in each case was 6 h. FIG. 1E Cytotoxicity of 2383. HeLa Luc705 or NIH-3T3-MDR cells were exposed to 2383 as in (FIG. 1C) then incubated for 24 h in DMEM plus 10% FBS and tested using the Alamar Blue cytotoxicity assay. Means+/−SE. N=3.
SSO-mediated luciferase induction assays were conducted as previously described. (18) In short, HeLaLuc705 cells in 24 well culture plates were preincubated with SSO623 followed by brief treatment with the small molecule; at intervals thereafter, luciferase activity and protein content were determined. […] Cytotoxicity of 2383 was monitored using the Alamar Blue assay. […]

HeLaLuc705 cells = experiment: SSO-mediated luciferase induction assay; assay type: cell-based
Procedure: FIG. 1B-1E. Effects with SSOs. FIG. 1B Structure of UNC2383. […] The cells were then rinsed and incubation continued for an additional 4 h in DMEM+10% FBS. Cells were rinsed twice in PBS and luciferase activity (RLU) and cell protein determined. The larger round symbol indicates the MM oligonucleotide. Means+/−SE. N=3. […] The cells were further incubated and then luciferase and protein determined. The total time of incubation in each case was 6 h. […] Means+/−SE. N=3.
FIG. 3. Effect and Cytotoxicity of Analogs. The effect of selected UNC2383 analogs on luciferase induction by SSO623 was measured as described in Methods and in the legend of FIG. 1B-1E. Cytotoxicity was measured using the Alamar Blue method as in FIG. 1E. MM10 is the effect of 10 uM compound in the presence of a mismatched oligonucleotide. Means and SE. N=3.
HeLaLuc705 cells are stably transfected with a firefly luciferase reporter whose coding sequence is interrupted by an abnormal intron. […] NIH-3T3-MDR cells are stably transfected with a human MDR1 cDNA coding for the P-glycoprotein (Pgp). We have described the maintenance and use of these cell lines elsewhere. (18, 20)
SSO-mediated luciferase induction assays were conducted as previously described. (18) In short, HeLaLuc705 cells in 24 well culture plates were preincubated with SSO623 followed by brief treatment with the small molecule; at intervals thereafter, luciferase activity and protein content were determined. […] (30)

[1] = tested on: lysosomes of HeLa Luc 705 cells; experiment: Lysotracker Red accumulation assay; assay type: cell-based; settings: 2 μM
Procedure: FIG. 9A-9D. Effects on lysosomes. FIG. 9A: Lysotracker uptake. Accumulation of Lysotracker Red in HeLa Luc 705 cells was measured after a 2 h exposure of cells to the indicated concentrations of various analogs. The lysosomotropic compound chloroquine was included as a positive control. Means of triplicate determinations are shown. The color-coded numbers refer to the fold increase in luciferase induction attained by the concentration of analog associated with the adjacent symbol on the graph. The numbers are taken from the data of FIG. 1C for UNC2383 and FIG. 4 for UNC4267, UNC4258, and UNC4428. FIG. 9B: LT50 vs TC50. […] Nonlinear regression was calculated using Prism software. The R^2 value for the plot is 0.91. FIG. 9C: 2383 vs chloroquine; luciferase induction. HeLa Luc705 cells were exposed to SSO623 and then treated with various concentrations of UNC2383 or chloroquine for 2 h and then tested for luciferase induction following the methods described in FIG. 1B-FIG. 1E. […]
The integrity of lysosomes was evaluated using the fluorescent probe Lysotracker Red (Thermo Fisher). […] Cells were thoroughly rinsed in PBS, lysed in 0.2% TX 100, and centrifuged briefly at 4000 rpm, and 100 uL of the supernate was distributed to black 96 well plates for analysis of fluorescence using a FLUOstar Omega 96 well microplate reader.

[2] = In vivo toxicity parameters (cardiac blood samples)
Procedure: All animal procedures were conducted in compliance with guidelines of the UNC Laboratory Animal Medicine Department and with federal guidelines. […] (20, 32) EGFP654 mice were administered 35 mg/kg of SSO623 or mismatched oligonucleotide in buffer by intraperitoneal injection on two consecutive days. One day later, mice received either 5 mg/kg of UNC2383 in a 1:1 DMSO/PEG400 solution or only the diluent, via intraperitoneal injection. […] After 24 h, the second cohort was euthanized and tissue and cardiac blood samples were obtained. […] (31) Blood samples were analyzed by the UNC Animal Clinical Chemistry Core facility.

[3] = cells preloaded with 100 nM SSO623, FIG. 1D
[4] = 24 h after administration, means +/− SE, N = 4

O=C(Nc1nc2ccccc2n1CCN1CCCC1)c1cc2cc(Cl)ccc2o1 [UNC2383]
concentrations showing little toxicity (NIH-3T3-MDR cells): ≤ 10 µM
effectiveness in cells compared to Retro-1 (HeLaLuc705 cells): far more effective
effectiveness in cells compared to UNC10217938 (HeLaLuc705 cells): approximately equivalent
enhancement of SSO actions (HeLaLuc705 cells; 2 μM): quite strongly enhanced
SSO-mediated luciferase induction, comparison with chloroquine (HeLaLuc705 cells; FIG. 9C, 2 h, chloroquine also 16 h): very active
onset of action: effects first observed (HeLaLuc705 cells; [3]): ≤ 30 min
onset of action: reaching a plateau (HeLaLuc705 cells; [3]): ≤ 120 min
EC50 (HeLaLuc705 cells; luciferase induction by SSO623): 2000 nM
luciferase induction after mismatched oligonucleotide (HeLaLuc705 cells; mismatched oligonucleotide followed by compound): no effect
effect on lysotracker accumulation [1]: little effect
toxicity in vivo ([2]; 5 mg/kg i.p.): limited toxicity
ALT [2, 4]: 106 +/− 32 U/L
AST [2, 4]: 76 +/− 15 U/L
BUN [2, 4]: 20 ± 4 mg/dL
Hb [2, 4]: 11.8 ± 0.4 g/dL
Platelets [2, 4]: 711 +/− 85 × 10^3/ul
